Source: publication PMC7766232, “Cyclic RGD and isoDGR Integrin Ligands Containing cis-2-amino-1-cyclopentanecarboxylic (cis-β-ACPC) Scaffolds” (Molecules, 2020)
Read-outs that look alike come from different tables or passages of the source. Starred links: 1 amine or outer side, 2 acyl side, 3 side chain; linkers in the order of their positions; H or OH if unused. Positions of bridges follow the written chain, without caps; N, C: chain ends. Non-standard residues stand in square brackets, D forms with d. Residues, ends and D or L forms follow the SMILES beside them. X1 = O=C([C@@H]1CCC[C@@H]1N[*:1])[*:2]

Experiments:
[1] = molecular target: T1, purified α5β1 receptor (Homo sapiens, UniProt P05556+P08648); parameters: method as in PMID 23424096, PMID 28934103, PMID 28168158, PMID 31275795; conditions: reference compounds, measured using the same procedure; biotinylated fibronectin; mean ± SD; ref [29],[48],[49],[50]; cited from earlier work
[2] = molecular target: T2, purified αvβ3 receptor (Homo sapiens, UniProt P05106+P06756); parameters: method as in PMID 23424096, PMID 28934103, PMID 28168158, PMID 31275795; conditions: reference compounds, measured using the same procedure; biotinylated vitronectin; mean ± SD; ref [29],[48],[49],[50]; cited from earlier work
[3] = molecular target: T1, purified α5β1 receptor; assay: Competitive binding assay to purified α5β1 receptor (displacement of biotinylated fibronectin); conditions: immobilized integrin α5β1, biotinylated fibronectin 1 μg mL−1; mean ± SD of duplicate determinations
Method: (§1) The cyclic peptidomimetics 8–10 were analyzed in a first instance for their competitive binding to purified αvβ3 and α5β1 receptors with respect to the biotinylated vitronectin or fibronectin, respectively. The IC50 values are collected in Table 1, where the values of Cilengitide (1a), cyclo-[RGDfV] (1b), cyclo-[DKP-RGD] (4), and cyclo-[DKP-isoDGR] (7), measured using the same procedure, are included as reference compounds for the RGD and isoDGR series. The new RGD compounds cyclo-[-Arg-Gly-Asp-(1S,2R)-β-ACPC-Val-] (8) and cyclo-[-Arg-Gly-Asp-(1R,2S)-β-ACPC-Val-] […] (10) is a micromolar binder for both integrins, much weaker than cyclo-[DKP-isoDGR] (7) in the case of αvβ3.
(§2) The inhibition assays of biotinylated vitronectin and fibronectin binding to the αvβ3 and α5β1 receptors, for compounds 8–10 were carried out as previously reported. […] Screening assays were performed by incubating the immobilized integrin αvβ3 or α5β1 with increasing concentrations (10^−12–10^−5 M/10^−11–10^−4 M) of the RGD and isoDGR ligands in the presence of the corresponding biotinylated ECM protein (1 μg mL^−1), and measuring bound protein in the presence of the competitive ligand. Each data point is the result of the average of triplicate wells and was analyzed by nonlinear regression analysis with the GraphPad Prism software. Each experiment was repeated in duplicate. IC50 values are the arithmetic mean ± the standard deviation (SD) of these duplicate determinations.

[4] = molecular target: WM115 cells (Homo sapiens, UniProt P05106+P06756); type: cell-based
Method: WM-115 cells were washed with MEM (Minimum Essential Medium)-buffer, detached with trypsin and resuspended to a cell density of 1 × 10^5 cells/mL. WM-115 cells were then incubated with fluorescein diacetate for 30 min at 37 °C in the dark, washed with MEM medium and resuspended with MEM medium containing CaCl2 and MgCl2 (2 mM) and incubated on ice for 30 min in the dark. […] 0.00195313, 0.00097565, 0.00048828, 0.00024414). Cells and peptide were incubated for 30 min at 37° C in the dark and afterwards added to the 96-well ELISA-plates previously coated with vitronectin and incubated for 1 h at 37 °C in the dark. Unbound cells were aspirated, and bound cells were washed three times with MEM medium and fluorescence measured (λex: 485 nm, λem: 514 nm) with an InfiniteTM 200 Microplate Reader (Tecan, Männedorf, Switzerland). […] The IC50 values were determined four times per peptide in two independent assays here reported, and the final values are the arithmetic mean ± the standard deviation (SD) of the two independent assays. The reference peptide […] was tested together with the peptides.

[5] = molecular target: T2, purified αvβ3 receptor; assay: Competitive binding assay to purified αvβ3 receptor (displacement of biotinylated vitronectin); conditions: for IC50: immobilized integrin αvβ3, biotinylated vitronectin 1 μg mL−1, mean ± SD of duplicate determinations; for selectivity ratio (IC50α5β1/IC50αvβ3): ratio of competitive binding IC50 values, α5β1 over αvβ3
Method: as §1, §2

[6] = read-out: IC50 (50% inhibition of cell adhesion to vitronectin), WM115 cells, fluorescein labeled, mean ± SD of two independent assays
[7] = read-out: IC50 cell adhesion, 1° Assay, WM-115 cells, vitronectin-coated plates, first independent assay (Figure S4)
[8] = read-out: IC50 cell adhesion, 2° Assay, WM-115 cells, vitronectin-coated plates, second independent assay (Figure S5)

Row | Compound | IC50 [1] [µM] | IC50 [2] [µM] | IC50 [3] [µM] | IC50 [4, 6] [µM] | IC50 [4, 7] [µM] | IC50 [4, 8] [µM] | IC50 [5] [µM] | selectivity ratio (IC50α5β1/IC50αvβ3) [5] | IC50 (50% inhibition of cell adhesion to vitronectin) ([4]; WM115 cells, fluorescein labeled, mean ± SD of two independent assays)
1 | cyclo-(-DKP-isoAsp-Gly-Arg-) [Compound 7] | 1.07 ± 0.228 | 0.0092 ± 0.0011 | – | – | – | – | – | – | –
2 | CC(C)[C@@H]1NC(=O)[C@H]2CCC[C@H]2NC(=O)[C@H](CC(=O)O)NC(=O)CNC(=O)[C@H](CCCNC(=N)N)NC1=O [Compound 8, cyclo-[-Arg-Gly-Asp-(1S,2R)-β-ACPC-Val-]] | – | – | 3.23 ± 1.47 | 75 ± 32.5 | 52 | 98 | 0.0443 ± 0.004 | ~73 | –
3 | cyclo[Arg-Gly-Asp-NMe Val-D-Phe] [Compound 1a] | – | 0.00071 ± 6e-05 | – | – | – | – | – | – | –
4 | CC(C)[C@@H]1NC(=O)[C@@H]2CCC[C@@H]2NC(=O)[C@H](CC(=O)O)NC(=O)CNC(=O)[C@H](CCCNC(=N)N)NC1=O [Compound 9, cyclo-[-Arg-Gly-Asp-(1R,2S)-β-ACPC-Val-]] | – | – | 0.468 ± 0.114 | 124 | 117 | 132 | 0.039 ± 0.0011 | about 12 | –
5 | cyclo-[-DKP-Arg-Gly-Asp-] [Compound 4] | 0.532 ± 0.035 | 0.0045 ± 0.0011 | – | – | – | – | – | – | –
6 | CC(C)[C@@H]1NC(=O)[C@@H]2CCC[C@@H]2NC(=O)[C@H](CCCNC(=N)N)NC(=O)CNC(=O)C[C@@H](C(=O)O)NC1=O [Compound 10, cyclo-[-isoAsp-Gly-Arg-(1R,2S)-β-ACPC-Val-]] (GR[X1]VD-OH; lactam N-5) | – | – | 2.33 ± 0.134 | – | > 300 | > 300 | 5.36 ± 0.281 | – | could not be measured
